Measured values from patent publication US9579330B2, “Use and application regimen of a pharmaceutical composition containing levonorgestrel and a COX inhibitor for on-demand contraception” (priority 2012, dated 2017).
Read-outs that look alike come from different tables or passages of the source. Marks after values point to notes of the source that are not given here.

How the values were obtained:
[1] = test system: fertility in humans; conditions: taken over a prolonged period for treating Bechterew's disease; cited from earlier work
[2] = test system: prostaglandin E2 (PEG2) synthesis in the ovaries
[3] = test system: fertility of female rats; experiment: Rat fertility test: single application in pro oestrus, pairing, number of implantation sites; format: in vivo, Han Wistar rats
Procedure: In the experiments below, female Han Wistar rats with a weight of 200-270 g were used. The animals were kept in Macrolon cages in rooms with controlled lighting (12 hours darkness: 12 hours lightness), fed with a standard diet and watered with water ad libitum. Levonorgestrel was dissolved in benzyl benzoate/castor oil (1+4 v/v) and the daily dose was applied in a volume of 1 ml/kg of body weight s.c. The COX inhibitors were suspended in a carrier liquid (85 mg Myrj®53 polyoxyl(50)stearate; CAS No. 9004-99-3) in 100 ml of 0.9% w/v NaCl solution) and the dose corresponding to the treatment group was administered orally in a volume of 2 ml/kg of body weight. Two cycles were observed using vaginal smears prior to the start of the experiment. […] Assignment to the treatment groups was random. The animals were treated once with the test substances either on their own or in combination in pro oestrus, the day in the cycle on which in the evening the LH peaked. On the evening of […] the female animals were paired with male rats. Successful pairing was tested the next morning by means of a vaginal sperm detection in the vaginal smear. The influence on the fertility was ascertained 9-15 days after the pairing via the number of implantation sites of the animals. The group size was n=6 animals per group.

[4] = test system: cervical secretion; conditions: clinical study; cited from earlier work
[5] = test system: ovulation of women; experiment: Clinical phase IIa study: oral single dose of piroxicam after start of the LH increase, ovulation inhibition or delay; format: in vivo; conditions: for Time from LH increase to ovulation in the treatment cycle, average value / Time from LH increase to ovulation in the treatment cycle, median / Time from LH increase to ovulation in the treatment cycle, range: N = 16; for % of women who exhibited an at least plus 24 hour delay in ovulation / Number of women who exhibited an at least plus 24 hour delay in ovulation compared to the median time between LH increase and ovulation in the untreated previous cycle: N = 16, final evaluation set
Procedure: In a clinical phase IIa study (monocentric, double blind, placebo controlled, randomized, parallel groups), piroxicam was administered to women of a fertile age in the dosages 20, 40 and 80 mg as an oral single dose. Overall, 72 women were treated, of which 18 women were given 20 mg, 17 women were given 40 mg, 20 women were given 80 mg of piroxicam and 17 women were given a placebo preparation. It was the aim of the study to investigate whether the oral single administration of piroxicam after the start of the LH increase has an effect on ovulation compared to the placebo in healthy young women. An ovulation inhibition or delay by at least plus 24 hours longer than the median duration between LH increase and ovulation in the untreated previous cycle of the study population was evaluated as the effect. For this purpose, transvaginal ultrasound investigations and hormone level measurements were carried out. Only women (n=64) without serious protocol deviations which could have influenced the study aim were included in the final study evaluation.
Adapted Kaplan-Meier curve for depicting the ovulation delay following administration of piroxicam compared to the administration of a placebo preparation. The time after the LH increase is plotted on the X axis in days. […] The individual curves represent the individual treatment groups: placebo group (solid line); 20 mg of piroxicam (dotted line consisting of short strokes), 40 mg of piroxicam (dotted line consisting of long strokes) and 80 mg of piroxicam (dotted line consisting of alternating long and short strokes).

[6] = Table 2.5, LNG 0.5 mg/animal at 17:00 (n = 5), naproxen 10 mg/animal at 20:00 (n = 4), combination 17:00
[7] = Table 2.5, naproxen 2 × 5 mg/animal at 17:00 and 20:00, alone or with LNG 0.5 mg/animal
[8] = Table 2.3, treatment at 17:00, LNG 0.5 mg/animal (n = 5), diclofenac 4 mg/animal
[9] = Table 2.1, treatment at 7:00, LNG 0.5 mg/animal s.c., piroxicam 2 mg/animal oral, single application
[10] = Table 2.1, treatment at 13:00, LNG 0.5 mg/animal s.c., piroxicam 2 mg/animal oral, single application
[11] = Table 2.2, treatment at 17:00, LNG 0.5 mg/animal, indomethacin 1 mg/animal, combination n = 5
[12] = Table 2.4, treatment at 17:00, LNG 0.5 mg/animal, ibuprofen 12.5 mg/animal
[13] = Table 2.4, treatment at 17:00, ibuprofen 25 mg/animal alone or with LNG 0.5 mg/animal

## COc1ccc2cc([C@H](C)C(=O)O)ccc2c1 [Naproxen, naproxen]
[1]
  Effect on fertility in humans (in words): antifertile effect
[2]; sample at 18:00, 2 hours after oral 20 mg/kg naproxen (around 16:00)
  Prostaglandin E2 in the ovaries, average value: 12.9 pg/500 μg tissue
[2]; sample at 20:00, 4 hours after oral 20 mg/kg naproxen (around 16:00)
  Prostaglandin E2 in the ovaries, average value: 32.1 pg/500 μg tissue
[2]; sample at 22:00, 6 hours after oral 20 mg/kg naproxen (around 16:00)
  Prostaglandin E2 in the ovaries, average value: 72.4 pg/500 μg tissue
[2]; under the action of naproxen
  Prostaglandin E2 (PEG2) synthesis in the ovaries (in words): reduced
[3]; [6]
  Implantations per animal (average value ± SD): 5.8 ± 4.4
  Sum of the implantation sites of 6 animals: 23**
[3]; [7]
  Implantations per animal (average value ± SD): 7.3 ± 3.6
  Sum of the implantation sites of 6 animals: 44
[3]; single application, doses as in Tables 2.1-2.5
  Antifertile effect in the rat fertility test (in words): reduction in fertility

## O=C(O)Cc1ccccc1Nc1c(Cl)cccc1Cl [Diclofenac, diclofenac]
[4]
  Effect on cervical secretion (in words): reduction in cervical secretion
[3]; [8]
  Implantations per animal (average value ± SD): 3.7 ± 3.6
  Sum of the implantation sites of 6 animals: 22

## C#C[C@]1(O)CC[C@H]2[C@@H]3CCC4=CC(=O)CC[C@@H]4[C@H]3CC[C@@]21CC [LNG, levonorgestrel]
[3]; [9]
  Implantations per animal (average value ± SD): 8.3 ± 4.3
  Sum of the implantation site, of 6 animals: 50
[3]; [10]
  Implantations per animal (average value ± SD): 5.3 ± 3.1
  Sum of the implantation site, of 6 animals: 32
[3]; [11]
  Implantations per animal (average value ± SD): 7.5 ± 4.0
  Sum of the implantation sites of 6 animals: 45
[3]; [8]
  Implantations per animal (average value ± SD): 6.8 ± 5.9
  Sum of the implantation sites of 6 animals: 34*
[3]; [12]
  Implantations per animal (average value ± SD): 10.5 ± 4.5
  Sum of the implantation sites of 6 animals: 63
[3]; [6]
  Implantations per animal (average value ± SD): 7.8 ± 5.9
  Sum of the implantation sites of 6 animals: 39*

## COc1ccc2c(c1)c(CC(=O)O)c(C)n2C(=O)c1ccc(Cl)cc1 [Indomethacin, indomethacin]
[3]; [11]
  Implantations per animal (average value ± SD): 4.8 ± 4.1
  Sum of the implantation sites of 6 animals: 29

## CC(C)Cc1ccc(C(C)C(=O)O)cc1 (stereo not drawn) [Ibuprofen, ibuprofen]
[3]; [12]
  Implantations per animal (average value ± SD): 10.8 ± 3.2
  Sum of the implantation sites of 6 animals: 65
[3]; [13]
  Implantations per animal (average value ± SD): 11.3 ± 2.6
  Sum of the implantation sites of 6 animals: 68

## CN1C(C(=O)Nc2ccccn2)=C(O)c2ccccc2S1(=O)=O [Piroxicam, piroxicam]
[5]; 20 mg oral single dose
  Extension of the time (median) between LH increase and ovulation in the treatment cycle compared to the previous cycle: 17 h
  Time from LH increase to ovulation in the treatment cycle, average value: 133 h
  Time from LH increase to ovulation in the treatment cycle, median: 65 h
  Time from LH increase to ovulation in the treatment cycle, range: 38 to 416 h
  % of women who exhibited an at least plus 24 hour delay in ovulation: 50.0%
  Number of women who exhibited an at least plus 24 hour delay in ovulation compared to the median time between LH increase and ovulation in the untreated previous cycle: 8
[5]; 40 mg oral single dose
  Extension of the time (median) between LH increase and ovulation in the treatment cycle compared to the previous cycle: 15 h
  Time from LH increase to ovulation in the treatment cycle, average value: 121 h
  Time from LH increase to ovulation in the treatment cycle, median: 63 h
  Time from LH increase to ovulation in the treatment cycle, range: 37 to 384 h
  % of women who exhibited an at least plus 24 hour delay in ovulation: 43.8%
  Number of women who exhibited an at least plus 24 hour delay in ovulation compared to the median time between LH increase and ovulation in the untreated previous cycle: 7
[5]; 80 mg oral single dose
  Extension of the time (median) between LH increase and ovulation in the treatment cycle compared to the previous cycle: 228 h
  Time from LH increase to ovulation in the treatment cycle, average value: 219 h
  Time from LH increase to ovulation in the treatment cycle, median: 276 h
  Time from LH increase to ovulation in the treatment cycle, range: 48 to 386 h
  % of women who exhibited an at least plus 24 hour delay in ovulation: 68.8%
  Number of women who exhibited an at least plus 24 hour delay in ovulation compared to the median time between LH increase and ovulation in the untreated previous cycle: 11
[5]; all three dose groups (20, 40, 80 mg)
  Effect on ovulation compared to placebo (in words): more marked effect on ovulation than in the placebo group
[3]; [9]
  Implantations per animal (average value ± SD): 9.5 ± 4.8
  Sum of the implantation site, of 6 animals: 57
[3]; [10]
  Implantations per animal (average value ± SD): 10.0 ± 5.3
  Sum of the implantation site, of 6 animals: 60
